Patent US20240075031A1 (HHT Foundation International, Inc., priority 2020, published 2024)
Like-named read-outs stand apart in the source and are kept apart here.

Tests used:
[1] = parameters: AUC.0-24, Mean: unit not given beside the values; conditions: historical values, Hurwitz 2009; 50 mg SD; cited from earlier work
[2] = system: transfusion-dependent adults with HHT (epistaxis and/or GI bleeding); experiment: Single-center pazopanib treatment pathway for severe bleeding and transfusion-dependent anemia in HHT; conditions: for RBC units transfused, median (IQR): pretreatment 3 months 16.0 (9.5-22.0); for patients with transferrin saturation ≥20%: no patient at baseline
Source text: In some embodiments, and still referring to FIG. 1, subjects may undergo follow-up clinical visits with vital signs, laboratory evaluations [complete blood count with white-cell differential, serum ferritin, iron and transferrin saturation, complete metabolic panel including liver function testing (transaminases, bilirubin, and alkaline phosphatase), serum phosphorous, urinalysis, and thyroid-stimulating hormone levels], electrocardiogram, and ESS calculations at a preconfigured time interval such as but not limited to 1 month, 2 months, 3 months, 4 months, 5 months, 6 months, and the like thereof per the pathway, with additional laboratory testing and visits as indicated.
In some embodiments, one or more secondary endpoints may include hemoglobin concentrations, epistaxis severity scores, iron infusions, baseline serum ferritin, and/or transferrin saturation.
Baseline and on-treatment hemoglobin values were drawn at clinical nadir (just prior to a scheduled transfusion) to minimize any impact of transfusion on the value. If more than one value was measured in a given 3-month period, the average value for that period was documented for analysis.
Now referring to FIG. 3B, three-month ESS was collected by the treating physician at treatment initiation and visits at 3, 6, 9, and 12 months on-treatment.
Now referring to FIG. 3C, a number of RBC units transfused in the 3 months of pretreatment were compared with the number of units transfused at each 3-month time interval on-treatment (1-3, 4-6, 7-9, and 10-12 months). The same analysis was performed for the total milligrams of elemental iron administered by IV infusion.
Baseline and on-treatment iron studies were drawn at nadir (prior to iron infusion or RBC transfusion, if either was given) to minimize any impact of recent iron infusion or RBC transfusion on the values.

[3] = 6 patient PK study, 50 mg SD, powder in capsule (disclosed method); type: in vivo, patients; conditions: for AUC / Cmax: 50 mg
Source text: In some embodiments, may be similar to the results expected of a crushed tablet. No reduction in the standard error (SE), but only 6 patients may not be adequate to see this range of exposures decrease. An improvement with powder in capsules is that the variation in exposure should also be truncated based on prior crushed tablet study.

[4] = disclosed method, 6 patients, 50 mg SD

SMILES: Cc1ccc(Nc2nccc(N(C)c3ccc4c(C)n(C)nc4c3)n2)cc1S(N)(=O)=O [pazopanib]
- AUC.0-24, Mean [1]: 51.8
- C24, Mean [1]: 1.5
- Tmax, median [1]: 3.0/
- RBC units transfused, median (IQR) ([2]; 1-3 months of on-treatment): 0.0 (0.0-1.0) units
- elemental iron infused, median (IQR) ([2]; 1-3 months on-treatment, pretreatment 3 months 4500 (2145-7260)): 0 (0-1500) milligrams
- patients with freedom from anemia (Hgb≥11 g/dL) ([2]; 3 months): 15%
- RBC units transfused, median (IQR) ([2]; 4-6, 7-9, and 10-12 months of on-treatment): 0.0 (0.0-0.0) units
- elemental iron infused, median (IQR) ([2]; 4-6 months on-treatment): 0 (0-1260) milligrams
- patients with freedom from anemia (Hgb≥11 g/dL) ([2]; 6 months): 85%
- patients with transferrin saturation ≥20% ([2]; 6 months, 8 patients): 62%
- elemental iron infused, median (IQR) ([2]; 7-9 months on-treatment): 0 (0-1260) milligrams
- patients with freedom from anemia (Hgb≥11 g/dL) ([2]; 9 months): 85%
- elemental iron infused, median (IQR) ([2]; 10-12 months on-treatment): 0 (0-510) milligrams
- patients with freedom from anemia (Hgb≥11 g/dL) ([2]; 12 months): 92%
- patients not requiring any local hemostatic procedures after initiating treatment ([2]; 12 months on-treatment, 9 patients): 69%
- patients with transferrin saturation ≥20% ([2]; 12 months, 7 patients): 54%
- patients achieving RBC transfusion independence ([2]; at 3 months of treatment, 10 of 13 patients): 77%
- remaining patients achieving RBC transfusion independence ([2]; at 6 months of treatment, 3 of 13 patients): 23%
- patients entirely RBC transfusion free ([2]; during the 12 months following pazopanib initiation, 9 of 13 patients): 69%
- number of local hemostatic procedures, median (range) ([2]; during the 12 months of on-treatment, 12 months pretreatment 4 (1-5)): 0 (0-2)
- patients achieving RBC transfusion independence per Gale criteria ([2]; first year of pazopanib treatment, 13 patients analysed): 13 patients
- transferrin saturation, median (IQR) ([2]; on-treatment (average of values at 6 and 12 months), baseline 9% (5-11%)): 23%
- serum ferritin, median (IQR) ([2]; on-treatment (average of values at 6 and 12 months), baseline 31 (16-71)): 122 (79-154) ng/mL
- increase in the Area Under the Curve (AUC) from prior publications of comparable dosing ([3]; capsule enclosing a powder substance): 20-25%
- C24, GeoMean [3, 4]: 1.90
- C24, Mean [3, 4]: 2.09
- AUC ([3]; human, plasma, oral, disclosed method, 6 patients, 50 mg SD, read-out: AUC.0-24, GeoMean): 59800 ng·h/mL
- AUC ([3]; human, plasma, oral, disclosed method, 6 patients, 50 mg SD, read-out: AUC.0-24, Mean): 64400 ng·h/mL
- Cmax ([3]; human, plasma, oral, disclosed method, 6 patients, 50 mg SD, read-out: Cmax, GeoMean): 3820 ng/mL
- Cmax ([3]; human, plasma, oral, disclosed method, 6 patients, 50 mg SD, read-out: Cmax, Mean): 4120 ng/mL
- Tmax ([3]; human, plasma, oral, disclosed method, 6 patients, 50 mg SD, read-out: Tmax, median): 4.5 h
